Measured values taken from PubChem BioAssay (NCI).
Several values for one entry are separate records, joined by “and”; a condition that tells them apart may be missing. Equal values may be shown once.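 Step 1: Grow cells in 96-well plates. Step 2: Expose to compound for 48 hours at 5 concentrations. Step 3: Interpolate endpoints linearly; if unreached, use highest concentration. Abbreviation: GI50, concentration required for 50% inhibition of growth. Definition used: TGI = concentration required for complete inhibition of growth.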

Experiments:
Experiment in all cases: NCI anticancer screen, dose series, 48 h
[1] = test system: COLO 205 colon
[2] = test system: LXFL 529 NSCLC
[3] = test system: M14 melanoma
[4] = test system: M19-MEL melanoma
[5] = test system: NCI-H23 lung
[6] = test system: NCI-H460 lung
[7] = test system: OVCAR-5 ovarian
[8] = test system: SK-MEL-5 melanoma
[9] = test system: MDA-MB-231 breast
[10] = test system: MDA-MB-435

SMILES	TGI [1]	TGI [2]	TGI [3]	TGI [4]	TGI [5]	TGI [6]	TGI [7]	TGI [8]	GI50 [1]	GI50 [2]	GI50 [3]	GI50 [7]	GI50 [8]	TGI [9]	TGI [10]	GI50 [9]	GI50 [10]	GI50 [5]	GI50 [6]
COC(=O)C(=O)C(C#N)c1nc2ccccc2s1 (centres undefined)	> 100 µM	> 100 µM	> 100 µM	> 100 µM	> 100 µM	> 100 µM	> 100 µM	> 100 µM											
CN(C)CCC(N)(P(=O)([O-])[O-])P(=O)([O-])[O-].N.N.[Pt+2]	> 100 µM	> 100 µM	> 100 µM				> 100 µM	> 100 µM	> 100 µM	> 100 µM	> 100 µM	> 100 µM	> 100 µM						
Cc1c(C(Cc2ccccc2N(C)C(=O)/C=C\C(=O)O)c2c[nH]c3ccccc23)c2ccccc2n1C (centres undefined)	29.6 µM	26 µM	39.5 µM	30.5 µM	32.8 µM	32.7 µM	35.6 µM	29.8 µM											
Cc1cc(N(CCC#N)CCC#N)ccc1/C=C(\NC(=O)/C=C/c1ccccc1)C(=O)N=[N+]=[N-]	> 100 µM	> 100 µM	> 100 µM	> 100 µM	> 100 µM	> 100 µM	> 100 µM	> 100 µM											
CCN(CC)CC(=O)NC1c2ccccc2Oc2ccccc21	> 100 µM	> 100 µM	> 100 µM	> 100 µM	> 100 µM	> 100 µM	> 100 µM	> 100 µM											
CC(C)(CN1CCCCC1)C(=O)/C=C/c1ccccc1	40.9 µM	34.7 µM	34.7 µM	52.3 µM	33.7 µM	66.9 µM	40.4 µM	25.8 µM											
O=C(/C=C/c1ccccc1)NC1C=Nc2ccc([N+](=O)[O-])cc2NC1=O (centres undefined)	> 100 µM	> 100 µM	> 100 µM	> 100 µM	> 100 µM	> 100 µM	> 100 µM	> 100 µM											
Cc1c2cnccc2c(C)c2c1c1ccccc1n2CCOC(=O)c1ccccc1	47 µM		> 100 µM	31.8 µM	54.7 µM	16 µM	69 µM	38.9 µM						> 100 µM	> 100 µM				
COc1cc2c(c3oc(-c4ccc(O)cc4)c(O)c(=O)c13)CCC(C)(C)O2	5.02 µM		0.523 µM		0.221 µM	0.351 µM	0.622 µM	0.241 µM	2.18 µM		0.212 µM	0.229 µM	0.0908 µM	0.312 µM	0.204 µM	0.101 µM	0.0427 µM	0.0836 µM	0.0996 µM
COc1cc(/C=C2\CC3C4CC=C5CC(OC(C)=O)CC[C@]5(C)C4CC[C@]3(C)C2=O)ccc1OCCN1CCCC1 (some centres undefined)	> 63.8 µM		2.9 µM		27.7 µM		26.4 µM	2.86 µM	4.83 µM		1.42 µM	13.4 µM	1.38 µM	11.2 µM	13.1 µM	3.39 µM	3.38 µM	14.2 µM	2.54 µM
O=c1[nH]c2ccccc2n1C1CCNCC1	> 100 µM		> 100 µM		> 100 µM	> 100 µM	> 100 µM	> 100 µM	> 100 µM		> 100 µM	> 100 µM	> 100 µM	> 100 µM	> 100 µM	> 100 µM	> 100 µM	> 100 µM	> 100 µM
COc1ccc(C2=NN(C(N)=S)C(c3ccc4c(c3)OCO4)C2)cc1 (centres undefined)	11.5 µM		35.4 µM		23.3 µM	6.83 µM	21.9 µM	8.41 µM	3.39 µM		3.77 µM	2.79 µM	2.47 µM	65.7 µM	7.26 µM	4.71 µM	2.39 µM	3.71 µM	2.6 µM
N#CC1=C(N)Oc2c(sc3c(Br)cccc23)C1c1ccc([N+](=O)[O-])cc1 (centres undefined)	1.14 µM		11.8 µM		13.2 µM	10.4 µM	16.4 µM	4.45 µM	0.224 µM		0.0964 µM	1.4 µM	0.0652 µM	9.67 µM	0.0807 µM	0.514 µM	0.0206 µM	0.131 µM	0.0655 µM
CC1CCCCCC(=O)c2c(O)cc(O)cc2CC(=O)O1 (centres undefined)	> 100 µM		> 100 µM		> 100 µM	> 100 µM	> 100 µM	> 100 µM						> 100 µM	> 100 µM				
O=C(N/N=C/c1ccc(Cl)cc1)c1ccc(NC(=O)c2ccccn2)cc1	> 100 µM		> 100 µM		> 100 µM	24.6 µM	> 100 µM	41.8 µM	> 100 µM		56.8 µM	68 µM	8.76 µM	> 100 µM	> 100 µM	27.3 µM	23.8 µM	26.3 µM	8.2 µM
O=C1C2C3CC4C5C3C1C5C1(SCCS1)C42 (centres undefined)	> 100 µM	> 100 µM	> 100 µM	> 100 µM		> 100 µM		> 100 µM											
C=CCc1cccc(C=O)c1O	> 100 µM		> 100 µM		> 100 µM	> 100 µM	> 100 µM	> 100 µM	> 100 µM		39.2 µM	> 100 µM	38.5 µM	> 100 µM	> 100 µM	19.1 µM	> 100 µM	> 100 µM	> 100 µM
C=CCC1(O)c2ccccc2C(=O)c2c(OCC(=O)OCC)ccc(OCC(=O)OCC)c21 (centres undefined)	> 100 µM		> 100 µM		> 100 µM	> 100 µM	> 100 µM	> 100 µM	> 100 µM		> 100 µM	> 100 µM	> 100 µM	> 100 µM	> 100 µM	25.6 µM	> 100 µM	> 100 µM	84.9 µM

SMILES	TGI [1]	TGI [2]	TGI [3]	TGI [4]	TGI [5]	TGI [6]	TGI [7]	TGI [8]	GI50 [1]	GI50 [2]	GI50 [3]	GI50 [7]	GI50 [8]	TGI [9]	TGI [10]	GI50 [9]	GI50 [10]	GI50 [5]	GI50 [6]
C[N+]1([O-])C2CCC1CC(OC(=O)C(CO)c1ccccc1)C2 (centres undefined)	> 100 µM		> 100 µM		> 100 µM	> 100 µM	> 100 µM	> 100 µM						> 100 µM	> 100 µM				
NC1=C(O)c2cccc3cccc(c23)C1=O	> 100 µM	> 100 µM	> 100 µM	> 100 µM	> 100 µM		> 100 µM	> 100 µM											
COC(=O)c1c2c(c(C)[n+]([O-])c1C)C(=O)C(NCc1ccc(OC)cc1)=CC2=O	2.75 µM		3.71 µM		4.26 µM	6.39 µM	4.06 µM	2.39 µM	0.839 µM		1.81 µM	1.8 µM	1.13 µM	6.14 µM	3.15 µM	2.2 µM	1.73 µM	1.81 µM	1.7 µM
CC(C)=CCC/C(C)=C/CC/C(C)=C/CSC[C@H](NC(=O)CCCCCN1CCN(C)CC1)C(=O)NC1CCCCCC1	3.63 µM		3.43 µM		8.78 µM	3.69 µM	3.6 µM	3.18 µM	1.85 µM		1.73 µM	1.84 µM	1.77 µM	3.86 µM	3.43 µM	1.93 µM	1.85 µM	3.01 µM	1.93 µM
Cc1ccc(S(=O)c2ccccc2[N+](=O)[O-])cc1 (centres undefined)			> 100 µM	> 100 µM	> 100 µM	> 100 µM	> 100 µM	> 100 µM											
O=c1nc2n(-c3cccc(Cl)c3)c3ccc([N+](=O)[O-])cc3cc-2c(=O)[nH]1	> 25 µM		16.8 µM		10.6 µM	> 25 µM	> 25 µM	12.8 µM	7.94 µM		6.55 µM	11.7 µM	5.36 µM	12.3 µM	8.09 µM	5.36 µM	4.06 µM	4.94 µM	9.77 µM
CC(C)=CC[C@@H]1CC2(CC=C(C)C)C(=O)C(OC3(C(=O)c4ccccc4)C(=O)C4(CC=C(C)C)C[C@@H](CC=C(C)C)C(C)(C)C(CC=C(C)C)(C4=O)C3=O)(C(=O)c3ccccc3)C(=O)C(CC=C(C)C)(C2=O)C1(C)C (some centres undefined)	3.22 µM		3.13 µM		4.48 µM	3.07 µM	8.06 µM	1.58 µM	1.2 µM		1.13 µM	1.51 µM	0.806 µM	4.12 µM	4.46 µM	1.49 µM	1.41 µM	1.36 µM	1.27 µM
O=c1c2ccccc2nc(-c2cccc([N+](=O)[O-])c2)n1O	> 100 µM		> 100 µM		> 100 µM	> 100 µM	> 100 µM	> 100 µM						> 100 µM	> 100 µM				
O=C1C=C(Nc2ccccc2)c2ccccc2C1=O	3.61 µM		3.65 µM		4.91 µM	6.47 µM	3.33 µM	3.12 µM	1.96 µM		1.96 µM	1.85 µM	1.7 µM	7.61 µM	3.7 µM	1.88 µM	1.93 µM	1.98 µM	2.44 µM
C[C@@H]1CN2[C@H]3[C@@H]1CC[C@]31CCC(=O)O[C@]1(C)[C@H]1CC[C@H]3CCC=C3[C@@H]12	> 30 µM		> 30 µM		> 30 µM	> 30 µM	> 30 µM	> 30 µM	> 30 µM		> 30 µM	> 30 µM	> 30 µM	> 30 µM	> 30 µM	> 30 µM	> 30 µM	> 30 µM	> 30 µM
CC1=C(CCCOC(=O)[C@H](N)CC(C)C)C2=C(C)C3(CC3)[C@@](C)(O)C(=O)C2=C1	3.42 µM		4.41 µM		3.23 µM	11.1 µM	11.8 µM	2.83 µM	1.49 µM		1.67 µM	1.94 µM	1.44 µM	6.42 µM	27.6 µM	2.03 µM	3.28 µM	0.367 µM	0.375 µM
CC1(C)N=C(N)N=C(N)N1c1ccc(OCCCNC(=O)Nc2ccc(S(=O)(=O)F)cc2)c(Cl)c1	> 100 µM		> 100 µM		> 100 µM	> 37.6 µM	> 100 µM	13.3 µM	0.854 µM		0.493 µM	0.419 µM	0.146 µM	> 100 µM	> 100 µM	3.34 µM	0.143 µM	0.488 µM	0.0486 µM
Cc1ccc(NC(=O)c2ccc(CN3CCN(C)CC3)cc2)cc1Nc1nc(-c2cccnc2)cs1	22.6 µM and > 10 µM		21.2 µM and > 10 µM		29.7 µM and > 10 µM	22.5 µM and > 10 µM	31.1 µM and > 10 µM	9.32 µM	8.14 µM and 3.69 µM		7.66 µM and 3.44 µM	16.6 µM and > 10 µM	2.46 µM	29.2 µM and > 10 µM	21.6 µM and > 10 µM	11.1 µM and 4.43 µM	8.24 µM and 5.64 µM	12.6 µM and > 10 µM	7.33 µM and 5.34 µM
COc1ccc(C(=O)C(C(=O)CCC(=O)Nc2ccc(Cl)c(Cl)c2)c2ccc(OC)cc2)cc1 (centres undefined)		> 100 µM	> 100 µM	> 100 µM	> 100 µM	> 100 µM	> 100 µM	> 100 µM											
CCOC(=O)c1noc2c1CCc1c-2cn(Cc2ccc(OC)cc2)c1-c1cc(OC)c(OC)c(OC)c1	7.82 µM		> 100 µM		> 100 µM	> 100 µM	> 100 µM	66.7 µM	1.77 µM		0.41 µM	4.72 µM	0.493 µM	> 100 µM	> 100 µM	2.7 µM	0.574 µM	3.04 µM	1 µM
Cn1cc(-c2ccc3nc(-c4ccc(CC(=O)Nc5cc(C(C)(C)C)no5)cc4)cnc3c2)cn1	> 3 µM		> 3 µM		> 3 µM	> 3 µM	> 3 µM	> 3 µM			0.0172 µM	0.0828 µM		0.664 µM	> 3 µM	0.0392 µM	0.0505 µM	0.895 µM	0.0289 µM
O=C(CCCc1ccc(N(CCCl)CCCl)cc1)NCc1ccccc1	33 µM		24.2 µM		33.1 µM	59.4 µM	> 100 µM	22.7 µM	13.5 µM		4.18 µM	33.1 µM	8.14 µM	> 100 µM	18 µM	21.3 µM	3.69 µM	4.77 µM	2.81 µM
